Source: US20050119301A1, “Treatment of restenosis” (priority 2001, published 2005)
Entries after “also recorded” stand apart in the source; their conditions may differ.

Experiments:
Erk = test: PDGF BB-induced MAP kinase activation in VSMC, immunoprecipitation analysis; type: cell-based; conditions: human VSMC
Method: (§1) To further examine the signalling pathway mediating the effect of this phytoestrogen in VSMC, the effect of Cpd. 7 on mitogen-activated protein (MAP) kinases (Erk, JUNK, p38) was determined by immunoprecipitation analysis and on early growth response genes (Egr-1, Sp-1) by Western blotting. […] 7 in a dose-dependent manner, while JUNK and p38 activity were not affected by either PDGF BB or Cpd. 7, though the cells strongly expressed both proteins as well as Erk. Egr-1 or Sp-1 proteins were not altered by either PDGF-BB or Cpd. 7.

p38 = test: MAP kinase activity in VSMC, immunoprecipitation analysis; type: cell-based; conditions: human VSMC
Method: as §1

JUNK = test: as above; type: cell-based; conditions: human VSMC
Method: as §1

[1] = test system: rat isolated aortic rings; test: Protection against endothelium damage induced by oxidised LDL, acetylcholine dilatation (Protocol 3)
Method: Male Sprague-Dawley rats (250±50 g) were gassed with 80% CO2 and 20% O2 until killed. The thoracic aorta was excised and quickly placed in ice-cold Krebs modified solution composed of NaCl […], […] 4.7 mM, MgSO4 7H2O 1.17 mM, NaHCO3 25 mM, KH2PO4 1.18 mM, CaCl2 2.5 mM, glucose 11 mM and EDTA 0.03 mM. It was then trimmed of fat and connective tissue and cut into 2-3 mm wide rings. Each ring was mounted on two parallel stainless steel hooks in a single water-jacketed 3 ml organ bath containing modified Krebs solution maintained at 37° C. and bubbled with 95% O2 plus 5% CO2. The lower hook was attached to a movable support leg and the upper hook to an FTO3 force transducer (Grass Scientific Instruments, Mitutoyo, Japan) for isometric recordings. Changes in force were amplified (Quadbridge amplifier, Scientific Concepts Inc., Victoria, Australia) and recorded on a MacLab 8E data acquisition system (Adinstruments Pty Ltd., NSW, Australia) linked to an Apple computer (Apple Computer Inc, Cupertina, Calif.). Rings were set at an initial tension of 2 g and allowed to equilibrate for 30 minutes after which time they were re-set to 2 g tension before the commencement of each experimental protocol.
Full concentration response curves to phenylephrine were constructed from which the concentration giving a submaximal contraction of approximately 80% was selected (usually 0.3 μM). Tissues were then constricted with phenylephrine at the selected concentration and allowed to plateau. Full concentration dilatory curves were then constructed to acetylcholine. […]
Human plasma was obtained from the blood bank. […] The protein content of the final LDL fraction obtained was determined by the simplified protein assay method of Lowry. […]
Contractile responses are expressed in g tension (mean+standard error of the mean). Dilatory responses are expressed as a percentage of the contractile force generated by the pre-constricting agent used. […]

Structure (SMILES) | PDGF BB-induced Erk activation (Erk) | p38 activity (p38) | JUNK activity (JUNK) | potency of protective effect against ox-LDL relative to 17β-estradiol [1] | protective effect against ox-LDL inhibition of acetylcholine dilatation (in words) ([1]; ox-LDL 0.3 mg protein/ml, β-estradiol 10 pg/ml, Cpd. 5 300 ng/ml, Cpd. 7 1 μg/ml, Cpd. 8 and 12 3 μg/ml)
Oc1ccc(C2COc3cc(O)ccc3C2O)cc1 (centres unmarked) [Cpd. 7] | significantly inhibited by Cpd. 7 in a dose-dependent manner | not affected | not affected |  | 
Oc1ccc(C2COc3cc(O)ccc3C2O)cc1 (centres unmarked) [Cpd. 8] |  |  |  | at least 10 times | diminished the inhibitory effect of ox-LDL; also recorded: significantly protects against endothelium damage by oxidized LDL
